Results taken from the Kinase Knowledgebase extract (Sharma et al. 2016).

target: MAPK14 (human) (UniProt Q16539); assay: Inhibition of MAPK14 Kinase Activity; settings: not given
Sequence (Q16539 whole entry, looked up): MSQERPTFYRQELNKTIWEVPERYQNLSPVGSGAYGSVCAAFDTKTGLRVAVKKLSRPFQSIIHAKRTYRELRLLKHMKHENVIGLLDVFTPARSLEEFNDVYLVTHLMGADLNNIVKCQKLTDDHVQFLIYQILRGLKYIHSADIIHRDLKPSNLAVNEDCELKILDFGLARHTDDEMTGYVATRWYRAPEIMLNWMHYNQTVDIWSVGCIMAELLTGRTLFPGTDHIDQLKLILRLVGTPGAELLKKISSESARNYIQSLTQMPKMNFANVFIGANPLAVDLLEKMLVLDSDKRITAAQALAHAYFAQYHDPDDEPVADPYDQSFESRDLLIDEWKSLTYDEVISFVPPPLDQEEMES

Row | SMILES | IC50 [µM]
1 | CC(C)(C)c1cc(C(=O)N2CCN(CCC(=O)O)C(=O)C2(C)C)c(NC(=O)Nc2cccc(Cl)c2Cl)s1 | < 5
2 | CCC1(C)C(=O)NCCN1C(=O)c1cc(C(C)(C)C)sc1NC(=O)Nc1ccc(F)c(Cl)c1Cl (configuration not stated) | < 5
3 | CC(C)(C)c1cc(C(=O)N2CCNC(=O)C2(C)C)c(NC(=O)Nc2ccc(C#N)c3ccccc23)s1 | < 5
4 | CC(C)(C)c1cc(C(=O)N2CCNC(=O)CC2)c(NC(=O)Nc2ccccc2OC(F)(F)F)s1 | < 5
5 | CC(C)(C)c1cc(C(=O)N2CCNC(=O)CC2)c(NC(=O)Nc2c(Cl)cncc2Cl)s1 | < 5
6 | CN(C)CCNC(=O)CN1CCN(C(=O)c2sc(C(C)(C)C)cc2NC(=O)Nc2ccc(F)c(F)c2Cl)C(C)(C)C1=O | < 5
7 | CC(C)(C)c1cc(NC(=O)Nc2ccc(F)c(Cl)c2Cl)c(C(=O)N2CCNC(=O)C2(C)C)o1 | < 5
8 | CCC1(C)C(=O)N(CC(=O)NCCN(C)C)CCN1C(=O)c1cc(C(C)(C)C)sc1NC(=O)Nc1ccc(F)c(Cl)c1Cl (configuration not stated) | < 5
9 | CN(C)CCN1CCN(C(=O)c2cc(C(C)(C)C)sc2NC(=O)Nc2c(Cl)cncc2Cl)C(C)(C)C1=O | < 5
10 | CN(C)CCN1CCN(C(=O)c2cc(C(C)(C)C)sc2NC(=O)Nc2cccnc2Cl)CCC1=O | < 5
11 | CC(C)(C)c1cc(C(=O)N2CCN(CCO)C(=O)C2(C)C)c(NC(=O)Nc2cccc(Cl)c2Cl)s1 | < 5
12 | CC(C)(C)c1cc(C(=O)N2CCS(=O)(=O)CC2)c(NC(=O)Nc2cccc3c2OCO3)s1 | < 5
13 | CON(C)C(=O)CN1CCN(C(=O)c2cc(C(C)(C)C)sc2NC(=O)Nc2ccc(F)c(Cl)c2Cl)C(C)(C)C1=O | < 5
14 | CN(C)C(=O)N1CCN(C(=O)c2cc(C(C)(C)C)sc2NC(=O)Nc2cccc(Cl)c2Cl)CC1 | < 5
15 | CCC1(C)C(=O)N(CC(=O)N2CCN(C)CC2)CCN1C(=O)c1cc(C(C)(C)C)sc1NC(=O)Nc1cccc(Cl)c1Cl (configuration not stated) | < 5
16 | CN(C)CCN1CCN(C(=O)c2cc(C(C)(C)C)sc2NC(=O)Nc2ccncc2Cl)C(C)(C)C1=O | < 5
17 | CC(C)(C)c1cc(C(=O)N2CCNC(=O)CC2)c(NC(=O)Nc2ccc(C#N)c(Cl)c2Cl)s1 | < 5
18 | CC(C)(C)c1cc(C(=O)N2CCNC(=O)C2(C)C)c(NC(=O)Nc2ccc(F)cc2Cl)s1 | < 5
19 | CC(C)(C)c1cc(C(=O)N2CCNC(=O)C2(C)C)c(NC(=O)Nc2ccc3c(c2)OCO3)s1 | < 5
20 | COC(=O)CC1(C)C(=O)NCCN1C(=O)c1cc(C(C)(C)C)[nH]c1NC(=O)Nc1cccc(Cl)c1Cl (configuration not stated) | < 5
21 | COC(=O)c1ccc(NC(=O)Nc2cc(C(C)(C)C)sc2C(=O)N2CCNC(=O)C2(C)C)c(Cl)c1 | < 5
22 | CN(C)CCNC(=O)CN1CCN(C(=O)c2cc(C(C)(C)C)sc2NC(=O)Nc2ccc(F)cc2Cl)C(C)(C)C1=O | < 5
23 | CC1(C)OCC(CNC(=O)CN2CCN(C(=O)c3cc(C(C)(C)C)sc3NC(=O)Nc3cccc(Cl)c3Cl)C(C)(C)C2=O)O1 (configuration not stated) | < 5
24 | CCC1(C)C(=O)N(C)CCN1C(=O)c1cc(C(C)(C)C)sc1NC(=O)Nc1cccc(Cl)c1Cl (configuration not stated) | < 5
25 | CC(=O)N1CCN(C(=O)c2cc(C(C)(C)C)sc2NC(=O)Nc2cccc(Cl)c2Cl)CC1 | < 5
26 | CCC1(C)C(=O)N(CC(=O)NCCN(C)C)CCN1C(=O)c1cc(C(C)(C)C)sc1NC(=O)Nc1ccccc1C(F)(F)F (configuration not stated) | < 5
27 | CC(C)(C)c1cc(C(=O)N2CCNC(=O)C2(C)C)c(NC(=O)Nc2ccncc2Cl)s1 | < 5
28 | CC(C)(C)c1cc(C(=O)N2CCN(CC(=O)O)C(=O)C2(C)C)c(NC(=O)Nc2cccc(Cl)c2Cl)s1 | < 5

same assay, conditions: concentration not given here

Row | SMILES | inhibition [%]
29 | CC(C)(C)c1cc(C(=O)N2CCNS(=O)(=O)CC2)c(NC(=O)Nc2cc(Cl)cc(Cl)c2)s1 | 76 to 100
30 | COCOCCN1CCN(C(=O)c2cc(C(C)(C)C)sc2NC(=O)Nc2cccc(Cl)c2Cl)CCC1=O | 76 to 100
31 | CC(C)(C)c1cc(C(=O)N2CCC(=O)N(CC(N)=O)CC2)c(NC(=O)Nc2cccc(Cl)c2Cl)s1 | 76 to 100
32 | CC(C)(C)c1cc(C(=O)N[C@@H]2CC(=O)NC2=O)c(NC(=O)Nc2ccc3ccccc3c2)s1 | 76 to 100
